# According to PubChem BioAssay AID651555 (The Scripps Research Institute Molecular Screening Center, 2012):
# Active and inactive are the calls of the source.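 The calls were made as follows: active = compounds whose half-maximal activation potency EC50 is 10 µM or stronger; inactive = the rest.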
# Molecular target: Melanocortin receptor 4 (Homo sapiens) (UniProt P32245)
# Test: activators of MC4R arrestin recruitment – cell-based, luminescence, agonists, late-stage follow-up (AID 651555)
# Details: U2OS MC4R beta-arrestin recruitment, beta-gal luminescence
# Sequence of Melanocortin receptor 4 (Homo sapiens) (P32245 whole entry, looked up): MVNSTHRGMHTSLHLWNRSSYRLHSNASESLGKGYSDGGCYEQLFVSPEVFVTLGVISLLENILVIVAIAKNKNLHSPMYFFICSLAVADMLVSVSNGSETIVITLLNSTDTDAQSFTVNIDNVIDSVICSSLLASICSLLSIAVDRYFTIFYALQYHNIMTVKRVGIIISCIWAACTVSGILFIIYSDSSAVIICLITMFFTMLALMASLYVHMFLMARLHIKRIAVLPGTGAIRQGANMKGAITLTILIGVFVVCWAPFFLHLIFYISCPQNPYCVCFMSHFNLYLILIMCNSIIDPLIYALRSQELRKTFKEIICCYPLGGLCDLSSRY
row,SMILES,EC50
1,Cc1ccccc1OCC(O)CN1CCC(CN2C(=O)c3cccc4cccc(c34)C2=O)CC1 (stereo not drawn),> 50 µM (inactive)
2,CCC1CCCCN1S(=O)(=O)c1ccc(NC(=O)c2cccc(S(C)(=O)=O)c2)cc1 (stereo not drawn),> 50 µM (inactive)
3,CCC1CCCCN1S(=O)(=O)c1ccc(NC(=O)c2nc(S(C)(=O)=O)ncc2Cl)cc1 (stereo not drawn),> 50 µM (inactive)
4,CCOC(=O)C1(c2ccccc2)CCN(CC(O)COc2ccc3ccccc3c2)CC1 (stereo not drawn),> 50 µM (inactive)
5,OC(COc1ccc2ccccc2c1)CN1CCC(Nc2nc3ccccc3o2)CC1 (stereo not drawn),> 50 µM (inactive)
6,CCC1CCCCN1S(=O)(=O)c1ccc(NC(=O)c2ccnc(SC)n2)cc1 (stereo not drawn),> 50 µM (inactive)
7,Cc1ccccc1CN1Cc2cnnn2-c2ccccc2C1C#N (stereo not drawn),> 50 µM (inactive)
8,COc1ccc(N(C(C)=O)C(C(=O)NC2CCCC2)c2cccs2)cc1OC (stereo not drawn),> 50 µM (inactive)
9,CCC1CCCCN1S(=O)(=O)c1ccc(NC(=O)c2ccccc2)cc1 (stereo not drawn),inactive
10,CC(=O)Nc1cc(-c2ccc(N(C)C)cc2)cn2c(-c3ccc(F)cc3)cnc12,> 50 µM (inactive)
11,O=c1[nH]c2ccccc2n1C1CCN(CC(O)COc2ccc3ccccc3c2)CC1 (stereo not drawn),> 50 µM (inactive)
12,O=C1c2cccc3cccc(c23)C(=O)N1CC1CCN(CC(O)COc2ccccc2)CC1 (stereo not drawn),> 50 µM (inactive)
13,C#CC(=O)N(c1ccc(OC)c(OC)c1)C(C(=O)NC1CCCC1)c1cccs1 (stereo not drawn),> 50 µM (inactive)
14,CC(=O)Nc1cc(-c2ccc(N(C)C)cc2)cn2c(-c3ccc(F)c(F)c3)cnc12,> 50 µM (inactive)
15,CC(=O)Nc1cc(-c2ccc(N(C)C)cc2)cn2c(-c3ccc(F)c(Cl)c3)cnc12,> 50 µM (inactive)
16,CNC(=O)c1cc(Oc2ccc(NC(=O)Nc3ccc(Cl)c(C(F)(F)F)c3)cc2)ccn1,> 50 µM (inactive)
17,CC1CCCCN1S(=O)(=O)c1ccc(NC(=O)c2nc(S(C)(=O)=O)ncc2Cl)cc1 (stereo not drawn),> 50 µM (inactive)
18,CC(=O)c1ccc(Nc2nc3ccc(C(=O)N(CCC(C)C)CCC(C)C)cc3n2CCCN2CCCCC2)cc1,> 50 µM (inactive)
19,COc1ccccc1C1(CCNC(C)c2cccs2)CCOC(C(C)C)C1 (stereo not drawn),> 50 µM (inactive)
20,CNC(=O)c1cc(Oc2ccc(NCC(=O)Nc3ccc(Cl)c(C(F)(F)F)c3)cc2)ccn1,> 50 µM (inactive)
21,CNC(=O)c1cc(Oc2ccc(NC(=O)CNc3ccc(Cl)c(C(F)(F)F)c3)cc2)ccn1,> 50 µM (inactive)
22,O=C1c2cccc3cccc(c23)C(=O)N1CC1CCN(CC(O)COc2ccc3ccccc3c2)CC1 (stereo not drawn),inactive
23,CC(=O)N(C)c1cc(-c2ccc(N(C)C)cc2)cn2c(-c3ccc(F)c(Cl)c3)cnc12,> 50 µM (inactive)
